Here are results for one substance from article PMC7481839, “Switchable foldamer ion channels with antibacterial activity” (Chemical Science, 2020).

Where two headings read alike, the source gives them in different places.

Experiment [1] has as its system human erythrocytes. The following applies: in phosphate buffer after 1 h incubation; read-out: reported EC50 for haemolysis; cited from earlier work. An excerpt: Although alamethicin is a very active channel former, its use in the clinic is hampered by its high haemolytic activity.[52]
Experiment [2] has as its system human erythrocytes. Kind of experiment: Haemolysis assay. The class given is cell-based. The following applies: fresh blood diluted with PBS (1:2), compound in DMSO, 37 °C for 30 min, triplicates, read-out: EC50 for haemolysis (haemoglobin release).
Experiment [3] has as its system B. megaterium strain DSM319. Kind of experiment: Antimicrobial assay: minimum inhibitory concentration (MIC). The experiment is classed as cell-based. The note with it: B. megaterium strain DSM319, LB broth, about 3 × 10^6 CFU/mL, 30 °C overnight, OD 600 nm, compound in DMSO, three biological repeats with three technical repeats. On the procedure:
The antibiotic activities of 1, 2, Cu(II)[1]Cl2 and Cu(II)[2]Cl2 were measured against B. megaterium strain DSM319 (see the ESI ^†).
Metal ion chelating Aib foldamers 1 and 2 bear a novel amino-terminal copper and nickel (ATCUN) binding motif; other ATCUN motifs are reported to increase antibiotic properties by generating reactive oxygen species upon metal binding.24 Furthermore many copper-containing metallodrugs have been stu died for their anticancer25 and antibiotic properties.26 Introducing the Cu(II)(BPTA) group onto the Aib octamer unit […]
antibiotic studies of long Aib n oligomers (n ≥ 10).15
7.1 Antimicrobial assays: minimum inhibitory concentrations (MIC)
The used procedure was developed by modification of published methods.27 The antimicrobial activity of the appropriate compound was tested against B. megaterium strain DSM319. Bacteria were grown over night at 30 °C in standard lysogeny broth (LB) broth from a single colony overnight. An aliquot from this suspension was taken and diluted (1:100) in fresh LB broth until the suspension reached the mid - logarithmic phase (OD600 = 0.4). […]
The plates were shaken for about 30 seconds and the optical density (OD) was measured at 600 nm.
Afterwards the plates were incubated at 30 °C under aerobic conditions with shaking overnight. The absorbance was then measured at 600 nm using a ClarioStar plate reader. […]

For experiment [4] the following is noted: cited from earlier work. An excerpt:
Application of Hille's equation[47] to estimate the inner channel diameters for both Cu(II)[2]Cl2 and Cu(II)[2]Cl·HCO3 provided approximate pore diameters of 1.5 nm, 2.1 nm and 2.3 nm for the different conductance levels (see the ESI ^†). […] Planar bilayer conductance (PBC) studies Alamethicin provides a useful comparison to the data reported in the manuscript and in the ESI.

Experiment [5] is described as follows: Lucigenin assay of Cl− transport in vesicles. The experiment is classed as biochemical. The following applies: 100 µM compound, interior NaNO3 200 mM, exterior NaCl (2 M), 25°C, first-order curve fit. On the procedure:
To confirm that chloride could pass through the bilayers, lucigenin assays[5a] were performed for 2, Cu(II)[1]Cl2 and Cu(II)[2]Cl2 (Fig. 5 and ESI, Fig. S10 ^†). The same lipids were used as for the HPTS assays and lucigenin was encapsulated with NaNO3 in the vesicles.
Figure S9: Ionophoric activity determined through an HPTS assay in the presence of NaCl (100 mM) for: 2 (10 µM) in the absence (pink inverted triangles) and presence of FCCP (20 µM, blue triangles) and Cu(II)[2]Cl2 (6 µM) in the absence (red circles) and presence of FCCP (20 µM, black squares). Base pulse at 1 min, TX-100 added at 7 min.
5.4 Preparation of large unilamellar vesicles for lucigenin assays […]
Lucigenin assays procedure and fluorescence normalisation were developed by a modification of published methods.10 An aliquot of the vesicle stock solution (100 μL) w as diluted to 1.9 mL with 200 mM NaNO 3 in water (pH = 7.4) (final lipid co ncentration in cuvette 0.762 mM). […] The cuvette was then placed into a Varian Cary Eclipse fluorescence spectrophotometer in the moderate stirring mode. The fluorescence emission at 505 nm was observed, resulting from excitation at 455 nm, over a period of seven minutes (420 seconds) at 25°C. […] The change in fluorescence was followed for six minutes before final lysis of the vesicles at seven minutes (420 s) by adding an aliquot of a 10 % v/v solution of Triton X-100 […]

Broadly, the EC50 is the concentration that produces a half-maximal response. On to alamethicin, for which the concentration giving a half-maximal response (EC50) is 1.45 µM in the experiment with human erythrocytes [1] and 1.4 µM in the experiment with human erythrocytes [2]. Besides, in experiment [3], the “MIC, minimum inhibitory concentration” value turned out to be 6 ± 2 µM. The “proposed pore diameter, hexameric pores” value in experiment [4] was 1.1 nm. In addition, the “proposed pore diameter, octameric pores” value in experiment [4] is 1.8 nm. Moreover, the “kobs of Cl− transport (lucigenin assay)” value in experiment [5] was determined as 0.0073 s⁻¹.
